In patent US11236106B2, “Cycloalkane-1,3-diamine derivative” (Daiichi Sankyo Company, Limited, priority 2018, dated 2022) one finds IC50 data, which are given here for 21 molecules.

The structures appear in SMILES notation. Where a name gives a salt, the structure may show the parent alone.

For one experiment, the target named is T1, menin and MLL (menin, Flag tagged; biotinylated MLL1 peptide 1-46aa) (Homo sapiens, UniProt O00255).
T1 sequence (O00255 1-610): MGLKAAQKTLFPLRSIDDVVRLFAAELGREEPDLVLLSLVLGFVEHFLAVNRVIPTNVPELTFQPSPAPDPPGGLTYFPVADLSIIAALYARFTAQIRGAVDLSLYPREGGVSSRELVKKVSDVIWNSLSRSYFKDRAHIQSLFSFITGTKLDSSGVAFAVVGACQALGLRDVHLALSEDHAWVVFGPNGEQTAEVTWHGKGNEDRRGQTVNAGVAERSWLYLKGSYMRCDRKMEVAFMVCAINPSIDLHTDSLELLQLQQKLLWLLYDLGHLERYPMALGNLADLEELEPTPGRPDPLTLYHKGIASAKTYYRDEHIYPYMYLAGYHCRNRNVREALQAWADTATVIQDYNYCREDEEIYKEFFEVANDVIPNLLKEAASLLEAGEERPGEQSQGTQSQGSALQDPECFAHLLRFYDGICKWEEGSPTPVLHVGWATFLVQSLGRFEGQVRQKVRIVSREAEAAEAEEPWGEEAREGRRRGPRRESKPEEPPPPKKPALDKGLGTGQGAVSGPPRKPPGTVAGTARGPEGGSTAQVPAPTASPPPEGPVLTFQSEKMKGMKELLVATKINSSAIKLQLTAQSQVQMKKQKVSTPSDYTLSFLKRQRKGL
The experiment in a line: biochemical.
Conditions: not given
For `COc1nc(N(C)[C@H]2C[C@@H](NCc3ccc(-c4cc(OC)c(Oc5ccccc5)nn4)cc3)C[C@H]2O)c2cc(CC(F)(F)F)sc2n1` [Example 114, (1R,2S,4R)-4-({[4-(5-methoxy-6-phenoxypyridazin-3-yl)phenyl]methyl}amino)-2-{[2-methoxy-6-(2,2,2-trifluoroethy)thieno[2,3-d]pyrimidin-4-yl](methyl)amino}cyclopentan-1-ol hydrochloride], 1.5 nM corresponded to half-maximal inhibition (IC50).

`COc1nc(N(C)[C@H]2C[C@@H](NCC3CC=C(c4cc(OC)c(OC)nn4)CC3)C[C@H]2O)c2cc(CC(F)(F)F)sc2n1` (mixture of isomers) [Example 125, (1R,2S,4R)-4-({[4-(5,6-dimethoxypyridazin-3-yl)cyclohex-3-en-1-yl]methyl}amino)-2-{[2-methoxy-6-(2,2,2-trifluoroethyl)thieno[2,3-d]pyrimidin-4-yl](methyl)amino}cyclopentan-1-ol hydrochloride] had an IC50 of 1.5 nM.

Still in this experiment, the particulars now being: IC50, binding inhibitory activity between menin and MLL, AlphaLISA; 1 nM menin, 10 nM biotinylated MLL1 peptide.
In turn, `COc1nc(N(C)[C@H]2C[C@@H](NCc3cccc(Nc4cccnc4)c3)C[C@H]2O)c2cc(CC(F)(F)F)sc2n1` [Example 120, (1R,2S,4R)-2-{[2-methoxy-6-(2,2,2-trifluoroethyl)thieno[2,3-d]pyrimidin-4-yl](methyl)amino}-4-[({3-[(pyridin-3-yl)amino]phenyl}methyl)amino]cyclopentan-1-ol hydrochloride] had an IC50 of 5.8 nM.

Take `COc1cc(-c2ccc(CN[C@H]3C[C@@H](O)[C@@H](N(C)c4ncnc5sc(CC(F)(F)F)cc45)C3)c(C)c2)cnc1OC` [Example 78, (1R,2S,4R)-4-({[4-(5,6-dimethoxypyridin-3-yl)-2-methylphenyl]methyl}amino)-2-{methyl[6-(2,2,2-trifluoroethyl)thieno[2,3-d]pyrimidin-4-yl]amino}cyclopentan-1-ol hydrochloride]: the IC50 came to 8.5 nM.

For the molecule `COc1cc(-c2ccc(CN[C@H]3C[C@@H](O)[C@@H](N(C)c4ncncc4Oc4ccc(F)cc4-c4ccccc4C(C)C)C3)cc2)nnc1OC` [Example 101, (1R,2S,4R)-4-({[4-(5,6-dimethoxypyridazin-3-yl)phenyl]methyl}amino)-2-[(5-{[5-fluoro-2′-(propan-2-yl)[1,1′-biphenyl]-2-yl]oxy}pyrimidin-4-yl)(methyl)amino]cyclopentan-1-ol hydrochloride], the IC50 was 2.7 nM.

The molecule `CNc1nc(N(C)[C@H]2C[C@@H](NCc3ccc(-c4cc(F)cc(OC)c4)cc3)C[C@H]2O)c2cc(CC(F)(F)F)sc2n1` [Example 75, (1R,2S,4R)-4-{[(3′-fluoro-5′-methoxy[1,1′-biphenyl]-4-yl)methyl}amino}-2-{methyl[2-(methylamino)-6-(2,2,2-trifluoroethyl)thieno[2,3-d]pyrimidin-4-yl]amino}cyclopentan-1ol hydrochloride] came in with an IC50 of 17.2 nM.

`CNc1nc(N(C)[C@H]2C[C@@H](NCc3ccc(-c4cnn(S(C)(=O)=O)c4)cc3)C[C@H]2O)c2cc(CC(F)(F)F)sc2n1` [Example 62, (1R,2S,4R)-4[({4[1-(methanesulfonyl)-1H-pyrazol-4-yl]phenyl}methyl)amino]-2-{methyl[2-(methylamino)-6-(2,2,2-trifluoroethyl)thieno[2,3-d]pyrimidin-4-yl]amino}cyclopentan-1-ol hydrochloride]: the IC50 was determined as 2 nM.

As to `CNC(=O)c1cccc(-c2ccc(CN[C@H]3CC[C@@H](N(C)c4ncnc5sc(CC(F)(F)F)cc45)C3)cc2)c1` [Example 66, N-methyl-4′-({[|(1S,3R)-3-{methyl[6-(2,2,2-trifluoroethyl)thieno[2,3-d]pyrimidin-4-yl]amino}cyclopentyl]amino}methyl)[1,1′-biphenyl]-3-carboxamide hydrochloride], the IC50 was 6.7 nM.

`[2H]C([2H])([2H])Oc1cc(-c2ccc(CN[C@H]3C[C@@H](O)[C@@H](N(C)c4nc(OC)nc5sc(CC(F)(F)F)cc45)C3)cc2)nnc1OC([2H])([2H])[2H]` [Example 123, (1R,2S,4R)-4-{[(4-{5,6-bis[(^2H3)methyloxy]pyridazin-3-yl}phenyl)methyl}amino}-2-{[2-methoxy-6-(2,2,2-trifluoroethyl)thieno[2,3-d]pyrimidin-4-yl](methyl}amino}cyclopentan-1-ol] came in with an IC50 of 0.6 nM.

Molecule `COc1cc(-c2ccc(CN[C@H]3C[C@@H](O)[C@@H](N(C)c4ncnc5sc(CC(F)(F)F)cc45)C3)cc2F)cnc1F` [Example 74, (1R,2S,4R)-4-({[3-fluoro-4-(6-fluoro-5-methoxypyridin-3-yl)phenyl]methyl}amino)-2-{methyl[6-(2,2,2-trifluoroethyl)thieno[2,3-d]pyrimidin-4-yl]amino}cyclopentan-1-ol hydrochloride] showed an IC50 of 6.5 nM.

The experiment is the same for the next values; noted with them: cell free IC50 (nM), 1 nM menin, 10 nM biotinylated MLL1 peptide, AlphaLISA.
The molecule `C=CC(=O)NCCCNC(=O)c1ccc(CN[C@H]2CC[C@@H](N(C)c3ncnc4sc(CC(F)(F)F)cc34)C2)cc1` [Example 6, 4-({[(1S,3R)-3-{methyl[6-(2,2,2-trifluoroethyl)thieno[2,3-d]pyrimidin-4-yl]amino}cyclopentyl]amino}methyl)-N-{3-[(prop-2-enoyl)amino]propyl}benzamide Hydrochloride] yielded an IC50 of 81.9 nM.

In turn, `CN(c1ncnc2sc(CC(F)(F)F)cc12)[C@@H]1CC[C@H](NCc2ccc(S(=O)(=O)c3ccccc3)cc2)C1` [Example 53, (1R,3S)N^3-{[4-(benzenesulfonyl)phenyl]methyl}N^1-methyl-N^1-[6-(2,2,2-trifluoroethyl)thieno[2,3-d]pyrimidin-4-yl]cyclopentane-1,3-diamine hydrochloride] returned an IC50 of 17.7 nM.

As for `COCc1cc2c(N(C)[C@@H]3CC[C@H](NCc4ccc(-c5cncc(OC)c5)cc4)C3)ncnc2s1` [Example 47, (1R,3S)-N^1-[6-(methoxymethyl)thieno[2,3-d]pyrimidin-4-yl]-N^3-{[4-(5-methoxypyridin-3-yl)phenyl]methyl}-N^1-methylcyclopentane-1,3-diamine hydrochloride], 97.2 nM corresponded to half-maximal inhibition (IC50).

`COc1cncc(-c2ccc(CN[C@@H]3C[C@H](N(C)c4ncnc5sc(CC(F)(F)F)cc45)[C@H](O)[C@@H]3O)cc2)c1` [Example 20A, (1S,2R,3R,5S)-3-({[4-(5-methoxypyridin-3-yl)phenyl]methyl}amino)-5-{methyl[6-(2,2,2-trifluoroethyl)thieno[2,3-d]pyrimidin-4-yl]amino}cyclopentane-1,2-diol Hydrochloride] registered a concentration for half-maximal inhibition (IC50) of 3.9 nM.

In turn, `CN(c1ncnc2sc(CC(F)(F)F)cc12)[C@@H]1CC[C@H](NCc2cnn(-c3ccccc3)c2)C1` [Example 32, (1R,3S)-N^1-methyl-N^3-[(1-phenyl-1H-pyrazol-4-yl)methyl]-N^1-[6-(2,2,2-trifluoroethyl)thieno[2,3-d]pyrimidin-4-yl]cyclopentane-1,3-diamine hydrochloride] came in with a 50% inhibitory concentration (IC50) of 94.9 nM.

Regarding `COc1cncc(-c2ccc(CN[C@H]3C[C@@H](O)C[C@@H](Nc4ncnc5sc(CC(F)(F)F)cc45)C3)cc2)c1` (single isomer, unassigned) [Example 15A, Hydrochloride], the IC50 worked out at 21.6 nM.

Take `O=C(NC1COC1)c1ccc(CN[C@H]2CCC[C@@H](Nc3ncnc4sc(CC(F)(F)F)cc34)C2)cc1` [Example 10, N-(oxetan-3-yl)-4-({[(1S,3R)-3-{[6-(2,2,2-trifluoroethyl)thieno[2,3-d]pyrimidin-4-yl]amino}cyclohexyl]amino}methyl)benzamide Hydrochloride]: the IC50 came to 199 nM.

As to `CN(c1ncnc2sc(CC(F)(F)F)nc12)[C@@H]1CC[C@H](NCc2ccc3[nH]c(C#N)cc3c2)C1` [Example 3, 5-({[(1S,3R)-3-{methyl[2-(2,2,2-trifluoroethyl)[1,3]thiazolo[5,4-d]pyrimidin-7-yl]amino}cyclopentyl]amino}methyl)-1H-indole-2-carbonitrile Hydrochloride], it took 81.8 nM to reach half-maximal inhibition (IC50).

The molecule `CN(c1ncnc2sc(CC(F)(F)F)cc12)[C@@H]1CC[C@H](NCc2ccc(-c3ccc(-c4ccc(Cl)nc4)nc3)cc2)C1` [Example 13, (1R,3S)—N^3-{[4-(6′-chloro[2,3′-bipyridine]-5-yl)phenyl]methyl}-N^1-methyl-N^1-[6-(2,2,2-trifluoroethyl)thieno[2,3-d]pyrimidin-4-yl]cyclopentane-1,3-diamine] displayed an IC50 of 7.6 nM.

As for `CN(c1ncnc2ccc(CC(F)(F)F)cc12)[C@@H]1CC[C@H](NCc2ccc(O)cc2)C1` [Example 5, 4-({[(1S,3R)-3-{methyl[6-(2,2,2-trifluoroethyl)quinazolin-4-yl]amino}cyclopentyl]amino}methyl)phenol Hydrochloride], the midpoint of inhibition, the IC50, lay at 856 nM.

As for `CCN(c1ncnc2sc(CC(F)(F)F)cc12)[C@@H]1CC[C@H](NCc2ccc(-c3cccnc3)cc2)C1` [Example 43, (1R,3S)-N^1-ethyl-N^3-{[4-(pyridin-3-yl)phenyl]methyl}-N^1-[6-(2,2,2 trifluoroethyl)thieno[2,3-d]pyrimidin-4-yl]cyclopentane-1,3-diamine hydrochloride], half-maximal inhibition (IC50) was put at 76.2 nM.

By IC50 is commonly meant the concentration that inhibits the measured activity by half.
